# Reference: US7037901B1, “Radiosensitization by indolocarbazole derivatives” (priority 2001, dated 2006)
# Like-named read-outs stand apart in the source and are kept apart here.
# Experiments:
# [1] = test system: Chinese Hamster lung fibroblast DC3F cells; experiment: Clonogenic survival assay, cytotoxicity in DC3F cells
# Method: Clonogenic Survival Assay. For a typical clonogenic survival experiment, stock cultures of exponentially growing cells were trypsinized, rinsed, and plated (5×10^5 cells per dish for DC3F and DC3F/C-10 cells; 1×10^6 cells for MCF-7 cells) into 100-mm petri dishes and incubated at 37° C. 18–24 h prior to experimental studies.
# Following various experimental protocols with drug incubation and irradiation, cells were trypsinized, rinsed, counted, and plated for […] colony formation. Depending on the anticipated survival level, 10^2 to 10^5 cells were plated per dose point. When higher cell numbers were plated, large petri dishes were used to avoid possible cell-density effect (100-mm instead of 60-mm petri dishes for cell number≧5×10^4). Depending on the treatment protocols, an equivalent amount of DMSO was added into each of the control radiation alone dishes (final DMSO concentration <0.1%).
# Following seven to fourteen days of incubation, colonies were fixed with methanol/acetic acid (3:1), stained with crystal violet. Colonies consisting of >50 cells were counted. All survival points were done in triplicate, and experiments were conducted a minimum of two times. Error bars shown in the figures represent standard deviations (SD) and are shown when larger than the symbol.
# The DC3F/C-10 cell line was selected from the Chinese Hamster lung fibroblast DC3F cell line in the presence of 1 μM of camptothecin (Albright, N., Radiat. Res., 112:331–340 (1987), and Chen, Y. N., J. Biol. Chem., 265:10073–10080 (1990)). […] In an attempt to determine the importance of TOP1 in mediating the cytotoxic and radiosensitizing effects by INDO derivatives, clonogenic survival assays were performed in DC3F and DC3F/C10 cells.
# [2] = molecular target: T1, covalent topoisomerase-DNA cross-links in CHO cells (Cricetulus griseus, UniProt Q07050, S505G); experiment: In vivo K+-SDS co-precipitation assay for protein-DNA cross-links; format: cell-based, Chinese hamster; parameters: key to Protein-DNA cross-links: +++: high activity; ++: modest activity; +: low activity; conditions: 30-min drug treatment, based on FIG. 5
# T1 construct: endogenous in cells; host or cells: Chinese hamster ovary CHO cells
# T1 sequence (Q07050 2-767 S505G): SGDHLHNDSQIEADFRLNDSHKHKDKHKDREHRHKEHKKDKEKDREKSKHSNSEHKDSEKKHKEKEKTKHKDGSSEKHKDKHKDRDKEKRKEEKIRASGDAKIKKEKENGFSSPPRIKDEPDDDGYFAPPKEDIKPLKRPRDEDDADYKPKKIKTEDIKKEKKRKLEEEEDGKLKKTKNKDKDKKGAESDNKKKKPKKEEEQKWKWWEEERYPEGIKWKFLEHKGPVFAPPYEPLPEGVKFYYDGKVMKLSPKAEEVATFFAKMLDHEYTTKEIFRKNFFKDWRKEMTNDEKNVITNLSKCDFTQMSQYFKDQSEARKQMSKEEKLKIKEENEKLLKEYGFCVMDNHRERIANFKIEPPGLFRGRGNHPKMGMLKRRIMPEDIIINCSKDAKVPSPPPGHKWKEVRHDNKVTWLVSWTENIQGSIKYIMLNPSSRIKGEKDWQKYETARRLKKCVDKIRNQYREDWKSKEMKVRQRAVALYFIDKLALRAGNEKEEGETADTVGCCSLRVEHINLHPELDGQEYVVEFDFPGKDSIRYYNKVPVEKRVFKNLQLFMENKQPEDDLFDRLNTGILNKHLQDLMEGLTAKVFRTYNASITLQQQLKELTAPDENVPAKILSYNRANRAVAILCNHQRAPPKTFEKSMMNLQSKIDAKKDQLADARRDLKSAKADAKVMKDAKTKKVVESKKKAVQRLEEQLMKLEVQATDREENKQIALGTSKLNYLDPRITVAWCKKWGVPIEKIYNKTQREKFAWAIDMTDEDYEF
# Source text: In vivo K^+-SDS co-precipitation assay for protein-DNA cross-links. The K^+-SDS co-precipitation assay as described previously (Chen, Y. N., et al., J. Biol. Chem., 265:10073–10080 (1990)) was used to quantify the formation of covalent topoisomerase-DNA cross-links in drug-treated cells.
# Briefly, the DNA in logarithmic growing Chinese hamster CHO cells was overnight-labeled in medium containing 1 μCi/ml of [mehtyl-^3H] thymidine. These cells were then trypsinized and diluted in fresh medium before aliquoted into a 24-well plate. After overnight incubation, the labeled cells were treated with various concentrations of drugs for 30 min, washed with phosphate-buffered saline once, and lysed by adding 1 ml of prewarmed lysis solution (1.25% SDS, 5 mM EDTA, 0.4 mg/ml salmon sperm DNA, pH 8.0, 65° C.).
# Following shearing chromosomal DNA by passing the lysate through a 19-gauge needle, the sample was transferred to a tube containing 0.25 ml of 325 mM KCl. The sample was vortexed vigorously for 10 s, cooled on ice for 10 min and centrifuged at 3000 rpm for 10 min at 4° C.
# The pellet was then resuspended in 1 ml of a wash solution (100 mM KCl, 1 mM EDTA, 0.1 mg/ml salmon sperm DNA, 10 mM Tris-HCl, pH 8.0) and placed at 65° C. for 10 min with occasional mixing. The sample was again cooled on ice for 10 min and centrifuged at 3000 rpm for 10 min at 4° C. After the pellet from each sample was washed again, the pellet was finally resuspended in 0.2 ml of 65° C. water and added to 5 ml of scintillation fluid to determine radioactive counts.
# The background precipitable counts were obtained by treating the lysate with proteinase K (400 μg/ml) at 65° C. for 2 h. Data are arithmetic means (±SD) of three determinations, and the background counts have been subtracted.
# [3] = test system: human breast cancer MCF-7 cells; experiment: Clonogenic survival assay with radiation (radiosensitization) in MCF-7 cells; format: cell-based; conditions: for ER (SER per footnote c, sensitization enhancement ratio): 2 μg/ml 1 h before radiation, at 10% survival; for Dq (width of the shoulder of the radiation survival curve): SHMT model fit, FIG. 3B; for Induction of RS / enhancement of radiocytotoxicity: one-hour preincubation with 2 μg/ml, FIG. 2; for RT dose (Gy) at 10% survival: pre-treated 2 μg/ml 1 h, rinsed, then radiation; for Enhancement of radiocytotoxicity: 10 μg/ml (data not shown)
# Method: (§1) Clonogenic Survival Assay. […] 18–24 h prior to experimental studies.
# (§2) Colonies consisting of >50 cells were counted.
# (§3) Irradiation of Cells. Drug-treated and control cells in medium were irradiated using a cobalt-60 source (Eldorado 8; Theratronics, Canada) at a dose rate of 105 cGy/min.
# (§4) Analysis of Survival Curves. Survival curves were corrected for cytotoxicity induced by drug alone treatment. Sensitization enhancement ratios (SERs) and standard deviations for survival curves were determined at 10% cell survival. Each SER was calculated by dividing the radiation dose to induce 10% cell survival in the absence of radiosensitizer with the radiation dose to induce 10% cell survival in the presence of radiosensitizer.
# The updated programs developed by Dr. N. Albright (San Rafael, Calif.) (Albright, N., Radiat. Res., 112:331–340 (1987)) were used for curve fitting for MCF-7 cells with the linear quadratic (LQ) and the single hit multi-target (SHMT) models. Both the LQ and SHMT models gave qualitatively good fits. The fit with the SHMT model was used for the present study.
# [4] = test system: human MCF-7, Chinese hamster CHO and DC3F cells; experiment: Cytotoxicity (LD50) by clonogenic survival assays in three cell lines; format: cell-based; conditions: 1 h drug treatment; MCF-7, CHO and DC3F cells
# Method: as §1, §2
# We investigated the relationship between the TOP1-mediated DNA damage and the cytotoxic and radiosensitizing effects induced by the six INDO derivatives. The cytotoxicity of various INDO derivatives was determined by exposing logarithmically growing human MCF-7, Chinese hamster CHO and DC3F cells to the individual drug for 1 hr, followed by clonogenic survival assays.
# [5] = test system: human breast cancer MCF-7 cells; experiment: Clonogenic survival assay, drug alone (cytotoxicity) in MCF-7 cells; format: cell-based; conditions: 2 μg/ml for 1 h, read graphically from FIG. 2
# Method: as §1, §2
# [6] = test system: DC3F cells; experiment: Radiosensitization in DC3F cells (clonogenic survival with radiation); format: cell-based, Chinese hamster; conditions: for Induction of RS: concentrations as high as 10 μg/ml (data not shown)
# Method: as §1, §2, §3, §4
# [7] = test system: TOP1 mutant DC3F/C10 cells; experiment: Radiosensitization in DC3F/C10 cells (clonogenic survival with radiation); format: cell-based, Chinese hamster; conditions: for Radiation Dose (Gy) at 10% Survival / SER / Induction of RS: DC3F/C10 cells; for Resistance of DC3F/C-10 cells to induction of RS: in comparison to the DC3F cells, Table 4; for Induction of RS: concentrations as high as 10 μg/ml (data not shown)
# Method: as §1, §2, §3, §4
# [8] = test system: Chinese hamster CHO cells; experiment: Radiosensitization in CHO cells (preliminary, data not shown); format: cell-based; conditions: non-cytotoxic concentrations of 2 μg/ml and 10 μg/ml
# [9] = molecular target: camptothecin-resistant TOP1 mutant F361S (Homo sapiens, UniProt P11387, F361S); conditions: published work; cited from earlier work
# camptothecin-resistant TOP1 mutant F361S, sequence (P11387 whole entry F361S): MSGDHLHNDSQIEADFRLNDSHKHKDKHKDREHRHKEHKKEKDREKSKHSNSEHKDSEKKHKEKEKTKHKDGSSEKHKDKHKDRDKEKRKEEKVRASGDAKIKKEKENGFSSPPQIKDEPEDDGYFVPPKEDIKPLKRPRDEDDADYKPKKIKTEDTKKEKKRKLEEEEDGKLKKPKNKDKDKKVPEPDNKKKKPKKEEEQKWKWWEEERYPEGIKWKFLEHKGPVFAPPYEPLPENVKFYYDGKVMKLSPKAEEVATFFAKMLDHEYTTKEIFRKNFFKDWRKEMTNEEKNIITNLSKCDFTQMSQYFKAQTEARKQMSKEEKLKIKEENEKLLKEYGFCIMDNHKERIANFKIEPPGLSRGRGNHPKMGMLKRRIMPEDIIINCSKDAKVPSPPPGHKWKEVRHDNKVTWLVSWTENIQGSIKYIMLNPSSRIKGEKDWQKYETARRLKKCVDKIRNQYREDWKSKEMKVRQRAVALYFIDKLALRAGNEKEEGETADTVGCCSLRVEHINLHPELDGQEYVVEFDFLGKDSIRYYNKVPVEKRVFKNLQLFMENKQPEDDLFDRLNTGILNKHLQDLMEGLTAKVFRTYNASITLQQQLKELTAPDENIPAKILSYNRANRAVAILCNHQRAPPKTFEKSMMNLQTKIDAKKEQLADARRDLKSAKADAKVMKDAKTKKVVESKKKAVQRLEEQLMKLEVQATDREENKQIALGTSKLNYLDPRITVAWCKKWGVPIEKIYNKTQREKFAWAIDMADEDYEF
smiles,measurement,setting,value
"CO[C@H]1[C@H](O)[C@@H](O)[C@H](n2c3c(Cl)cccc3c3c4c(c5c6cccc(Cl)c6[nH]c5c32)C(=O)NC4=O)O[C@@H]1CO [F1, rebeccamycin]",Cytotoxic effect,[1],lack of cytotoxic effect
same,Protein-DNA cross-links,[2],++
same,"ER (SER per footnote c, sensitization enhancement ratio)",[3],1.9
same,Dq (width of the shoulder of the radiation survival curve),[3],drastically reduced
same,Induction of RS / enhancement of radiocytotoxicity,[3],induction of RS was observed
same,RT dose (Gy) at 10% survival,[3],3.8 Gy
same,Cytotoxicity (based on LD50),[4],"++ (modest activity, LD50 >4 μg/ml but ≦10 μg/ml)"
same,Percent of cell survival without RT,[5],94 ± 8%
same,Radiation Dose (Gy) at 10% Survival,[6]; 1.0 μg/ml,4.9 Gy
same,SER,[6]; 1.0 μg/ml,1.2
same,Radiation Dose (Gy) at 10% Survival,[6]; 5.0 μg/ml,4.6 Gy
same,SER,[6]; 5.0 μg/ml,1.3
same,Radiation Dose (Gy) at 10% Survival,[7]; 5.0 μg/ml,4.8 Gy
same,SER,[7]; 5.0 μg/ml,1.1
same,Radiation Dose (Gy) at 10% Survival,[7]; 25 μg/ml,4.5 Gy
same,SER,[7]; 25 μg/ml,1.2
same,Resistance of DC3F/C-10 cells to induction of RS,[7],showed resistance to induction of RS
COC1C(CO)OC(n2c3ccccc3c3c4c(c5c6ccccc6[nH]c5c32)C(=O)OC4=O)C(O)C1O (stereo not shown) [F5],Induction of RS,[8],potent inducer of RS
same,Cytotoxic effect,[1]; DC3F cells,lack of cytotoxic effect
same,Protein-DNA cross-links,[2],+
same,"ER (SER per footnote c, sensitization enhancement ratio)",[3],1.7
same,Dq (width of the shoulder of the radiation survival curve),[3],drastically reduced
same,Induction of RS / enhancement of radiocytotoxicity,[3],induction of RS was observed
same,RT dose (Gy) at 10% survival,[3],4.2 Gy
same,Cytotoxicity (based on LD50),[4],"+ (low activity, LD50 >10 μg/ml)"
same,Percent of cell survival without RT,[5],98 ± 2%
COC1C(CO)OC(n2c3ccccc3c3c4c(c5c6ccccc6[nH]c5c32)C(=O)N(O)C4=O)C(O)C1O (stereo not shown) [F7],Protein-DNA cross-links,[2],++
same,Cross-resistance of mutant TOP1,[9],cross-resistant
same,"ER (SER per footnote c, sensitization enhancement ratio)",[3],1.7
same,Dq (width of the shoulder of the radiation survival curve),[3],drastically reduced
same,Induction of RS / enhancement of radiocytotoxicity,[3],induction of RS was observed
same,RT dose (Gy) at 10% survival,[3],4.2 Gy
same,Cytotoxicity (based on LD50),[4],"++ (modest activity, LD50 >4 μg/ml but ≦10 μg/ml)"
same,Percent of cell survival without RT,[5],98 ± 2%
same,Radiation Dose (Gy) at 10% Survival,[6]; 2.5 μg/ml,4.6 Gy
same,SER,[6]; 2.5 μg/ml,1.3
same,Radiation Dose (Gy) at 10% Survival,[6]; 5.0 μg/ml,3.9 Gy
same,SER,[6]; 5.0 μg/ml,1.5
same,Radiation Dose (Gy) at 10% Survival,[6]; 10 μg/ml,3.6 Gy
same,SER,[6]; 10 μg/ml,1.7
same,Radiation Dose (Gy) at 10% Survival,[7]; 5.0 μg/ml,5.2 Gy
same,SER,[7]; 5.0 μg/ml,1.0
same,Radiation Dose (Gy) at 10% Survival,[7]; 10 μg/ml,4.9 Gy
same,SER,[7]; 10 μg/ml,1.1
same,Radiation Dose (Gy) at 10% Survival,[7]; 20 μg/ml,4.1 Gy
same,SER,[7]; 20 μg/ml,1.3
same,Resistance of DC3F/C-10 cells to induction of RS,[7],showed resistance to induction of RS
COC1C(CO)OC(n2c3c(Cl)cccc3c3c4c(c5c6cccc(Cl)c6[nH]c5c32)C(=O)N(C)C4=O)C(O)C1O (stereo not shown) [F43],Cytotoxic effect,[1]; DC3F cells,lack of cytotoxic effect
same,Protein-DNA cross-links,[2],+
same,"ER (SER per footnote c, sensitization enhancement ratio)",[3],1.0
same,Enhancement of radiocytotoxicity,[3],do not enhance radiocytotoxicity
same,Induction of RS / enhancement of radiocytotoxicity,[3],do not enhance radiocytotoxicity
same,RT dose (Gy) at 10% survival,[3],7.0 Gy
same,Cytotoxicity (based on LD50),[4],"+ (low activity, LD50 >10 μg/ml)"
same,Percent of cell survival without RT,[5],95 ± 5%
COC1C(CO)OC(n2c3ccccc3c3c4c(c5c6ccccc6[nH]c5c32)C(=O)N(C)C4=O)C(O)C1O (stereo not shown) [F44],Protein-DNA cross-links,[2],++
same,"ER (SER per footnote c, sensitization enhancement ratio)",[3],1.0
same,Enhancement of radiocytotoxicity,[3],do not enhance radiocytotoxicity
same,Induction of RS / enhancement of radiocytotoxicity,[3],do not enhance radiocytotoxicity
same,RT dose (Gy) at 10% survival,[3],6.9 Gy
same,Cytotoxicity (based on LD50),[4],"+++ (high activity, LD50 ≦4 μg/ml)"
same,Percent of cell survival without RT,[5],100 ± 2%
same,Induction of RS,[6],incapable of inducing RS
same,Induction of RS,[7],incapable of inducing RS
COC1C(CO)OC(n2c3ccccc3c3c4c(c5c6ccccc6[nH]c5c32)C(=O)NC4=O)C(O)C1O (stereo not shown) [F71],Protein-DNA cross-links,[2],+++
same,"ER (SER per footnote c, sensitization enhancement ratio)",[3],1.0
same,Enhancement of radiocytotoxicity,[3],do not enhance radiocytotoxicity
same,Induction of RS / enhancement of radiocytotoxicity,[3],do not enhance radiocytotoxicity
same,RT dose (Gy) at 10% survival,[3],7.2 Gy
same,Cytotoxicity (based on LD50),[4],"+++ (high activity, LD50 ≦4 μg/ml)"
same,Percent of cell survival without RT,[5],85 ± 10%
same,Induction of RS,[6],incapable of inducing RS
same,Induction of RS,[7],incapable of inducing RS
